Assay results taken from US20260109707A1, “HETEROBIFUNCTIONAL COMPOUNDS AND METHODS OF TREATING DISEASE” (Halda Therapeutics OpCo. Inc., priority 2022, published 2026).

Key:
[1] = test system: T-Rex 293 cell line SC3 cells having increased expression of androgen receptor protein due to exposure to doxycycline; assay: Cellular growth inhibition assay, T-Rex 293 SC3 cells with doxycycline (CellTiter-Glo, 72 hours); format: cell-based; conditions: T-Rex 293 SC3 cells with increased androgen receptor expression due to doxycycline (10 ng/mL)
Method: (§1) The following types of cells were prepared for this experiment: (i) a T-Rex 293 cell line having increased expression of androgen receptor protein due to exposure to doxycycline and (ii) a T-Rex 293 cell line lacking increased expression of androgen receptor protein. Ability of the test compounds to inhibit proliferation of the foregoing cell types was evaluated according to the procedures set forth below.
(§2) The doxycycline-inducible androgen receptor protein expressing cell line was established using the following protocol: T-Rex 293 cells were purchased from Invitrogen (Cat #R71007) and transfected using Lipofectamine 2000 with the wild-type androgen receptor protein sequence cloned into the pcDNA4/TO vector. Transfected cells were selected using 400 μg/mL Zeocin (Invitrogen Cat #R25001). Following selection, single clones were raised and maintained in Dulbecco's Modified Eagle Medium (DMEM) supplemented with 10% w/w Tetracycline-free fetal bovine serum (FBS) and 250 μg/mL Zeocin. Clones were analyzed for expression of androgen receptor protein in the presence and absence of 10 ng/mL doxycycline (Sigma Cat #D9891), and a single doxycycline-inducible clone (hereinafter “SC3”) was selected for use in downstream assays.
(§3) The SC3 cells were seeded on poly-D-lysine coated, black clear-bottom 384-well plates at 2500/well, in 25 μL Phenol Red Free Dulbecco's Modified Eagle Medium (DMEM) supplemented with 10% w/w charcoal-dextran treated fetal bovine serum (FBS) and 1% w/w pen-strep, with or without 10 ng/mL doxycycline. Pen-Strep is a commercially available mixture of penicillin G and streptomycin, which is used in mammalian cell culture media to prevent bacterial contamination. Phenol Red Free Dulbecco's Modified Eagle Medium (DMEM) supplemented with 10% w/w charcoal-dextran treated fetal bovine serum (FBS) and 1% w/w pen-strep, with or without 10 ng/mL doxycycline is herein referred to as Treatment Medium. Following seeding of cells in the plates, the plates were spun at 300×g for 30 seconds, then equilibrated to room temperature for 30 minutes, and then deposited in a humidified tissue culture incubator maintained at 37° C. with 5% CO2.
(§4) At 24 hours after seeding of the cells, dilutions of test compound were prepared in DMSO and dissolved in Treatment Medium, to achieve a final DMSO concentration of 0.5% w/w, thereby providing the Test Compound Solution. A 25 μL aliquot of the Test Compound Solution was added to cells in the well plates. An equal volume of a solution containing DMSO and Treatment Medium was used as a negative control. Following treatment of cells with Test Compound Solution or said equal volume of a solution containing DMSO and Treatment Medium, the plates were spun at 300×g for 30 seconds, and then left in an incubator for 72 hours.
(§5) At the end of the treatment duration, cell viability was quantified with CellTiter-Glo 2.0 reagent (Promega Cat #G9243). For this purpose, plates were equilibrated to room temperature for 30 minutes, and then 25 μL of CellTiter-Glo 2.0 reagent was added to cells in the plate wells. Plates were then agitated on a shaker for two minutes at 500 rpm and subsequently incubated at room temperature for 10 minutes. Following incubation, the plates were spun at 3000×g for 30 seconds, then sealed with an optical adhesive cover, and luminescence readings were measured with an EnVision Plate Reader.
(§6) Data was normalized using zero luminescence for baseline. A four-parameter non-linear regression curve fit was applied to dose-response data in GraphPad Prism data analysis software to determine the half-maximal growth inhibitory concentration (GI50) for each test compound.

[2] = test system: T-Rex 293 cell line SC3 cells lacking increased expression of androgen receptor protein; assay: Cellular growth inhibition assay, T-Rex 293 SC3 cells without doxycycline (CellTiter-Glo, 72 hours); format: cell-based; conditions: T-Rex 293 cell line SC3 cells not exposed to doxycycline (lacking increased androgen receptor expression)
Method: as §1, §2, §3, §4, §5, §6

| Structure (SMILES) | GI50 ([1]; 72 h) | GI50 ([2]; 72 h) | GI50 [1] | GI50 [2] |
| --- | --- | --- | --- | --- |
| Cc1sc2c(c1C)C(c1ccc(N3CCC(C)(CNc4ncc(C(=O)N[C@H]5CC[C@H](Oc6ccc(C#N)c(Cl)c6)CC5)cn4)CC3)cc1)=NC(Cc1ncco1)c1nnc(C)n1-2 (stereo partly drawn) [I-817] | < 500 nM | < 500 nM | – | – |
| Cc1sc2c(c1C)C(c1ccc(CC3CC(OC4CCN(c5ccc(C(=O)NC6CCC(Oc7ccc(C#N)c(Cl)c7)CC6)nn5)CC4)C3)cc1)=NC(C)c1nnc(C)n1-2 (stereo not drawn) [I-603] | < 500 nM | < 500 nM | – | – |
| Cc1sc2c(c1C)C(c1ccc(N3CCN(c4ncc(C(=O)N[C@H]5CC[C@H](Oc6ccc(C#N)c(Cl)c6)CC5)cn4)CC(F)(F)C3)cc1)=NC(Cc1ncco1)c1nnc(C)n1-2 (stereo partly drawn) [I-820] | < 500 nM | < 500 nM | – | – |
| Cc1sc2c(c1C)C(c1ccc(N3CCO[C@@H](CNc4ncc(C(=O)N[C@H]5CC[C@H](Oc6ccc(C#N)c(Cl)c6)CC5)cn4)C3)cc1)=NC(Cc1ncco1)c1nnc(C)n1-2 (stereo partly drawn) [I-819] | < 500 nM | < 500 nM | – | – |
| Cc1sc2c(c1C)C(c1ccc(N3C[C@@H]4CN(c5ccc(C(=O)N[C@H]6CC[C@H](Oc7ccc(C#N)c(Cl)c7)CC6)nn5)C[C@H]4C3)cc1)=N[C@@H](C)c1nnc(C)n1-2 [I-705] | – | < 500 nM | – | – |
| Cc1sc2c(c1C)C(c1ccc(N3CCC4(CC3)CCN(c3ncc(C(=O)N[C@H]5CC[C@H](Oc6ccc(C#N)c(Cl)c6)CC5)cn3)C4)cc1)=NC(Cc1ncco1)c1nnc(C)n1-2 (mixture of isomers) [I-779] | – | – | < 500 nM | < 500 nM |
| Cc1sc2c(c1C)C(c1ccc(N3CC(N4CCN(c5ncc(C(=O)N[C@H]6CC[C@H](Oc7ccc(C#N)c(Cl)c7)CC6)cn5)CC4)C3)cc1)=NC(Cc1ncco1)c1nnc(C)n1-2 (stereo partly drawn) [I-780] | < 500 nM | < 500 nM | – | – |
| Cc1sc2c(c1C)C(c1ccc(N3CC4(CCN(c5ncc(C(=O)N[C@H]6CC[C@H](Oc7ccc(C#N)c(Cl)c7)CC6)cn5)CC4)C3)cc1)=NC(Cc1ncco1)c1nnc(C)n1-2 (stereo partly drawn) [I-777] | < 500 nM | < 500 nM | – | – |
| Cc1sc2c(c1C)C(c1ccc(N3CCN(C4CCN(c5ncc(C(=O)N[C@H]6CC[C@H](Oc7ccc(C#N)c(Cl)c7)CC6)cn5)C4)CC3)cc1)=NC(Cc1ncco1)c1nnc(C)n1-2 (mixture of isomers) [I-783] | – | – | < 500 nM | < 500 nM |
| Cc1sc2c(c1C)C(c1ccc(N3[C@@H]4CC[C@H]3C[C@@H](Nc3ncc(C(=O)N[C@H]5CC[C@H](Oc6ccc(C#N)c(Cl)c6)CC5)cn3)C4)cc1)=NC(Cc1ncco1)c1nnc(C)n1-2 (stereo partly drawn) [I-782] | – | – | < 500 nM | > 3000 nM |
| Cc1sc2c(c1C)C(c1ccc(N3CC[C@H](Nc4ncc(C(=O)N[C@H]5CC[C@H](Oc6ccc(C#N)c(Cl)c6)CC5)cn4)C3)cc1)=NC(Cc1ncco1)c1nnc(C)n1-2 (stereo partly drawn) [I-776] | < 500 nM | < 500 nM | – | – |
| Cc1sc2c(c1C)C(c1ccc(NCCC3CCN(c4ncc(C(=O)N[C@H]5CC[C@H](Oc6ccc(C#N)c(Cl)c6)CC5)cn4)CC3)cc1)=NC(Cc1ncco1)c1nnc(C)n1-2 (stereo partly drawn) [I-811] | < 500 nM | < 500 nM | – | – |
| Cc1sc2c(c1C)C(c1ccc(NCC3CN(c4ncc(C(=O)NC5CCC(Oc6ccc(C#N)c(Cl)c6)CC5)cn4)CCO3)cc1)=NC(Cc1ncco1)c1nnc(C)n1-2 (mixture of isomers) [I-814] | – | – | < 500 nM | < 500 nM |
| Cc1sc2c(c1C)C(c1ccc(N[C@H]3CCN(c4ncc(C(=O)N[C@H]5CC[C@H](Oc6ccc(C#N)c(Cl)c6)CC5)cn4)C3)cc1)=NC(Cc1ncco1)c1nnc(C)n1-2 (stereo partly drawn) [I-773] | 500 to 1500 nM | 500 to 1500 nM | – | – |
| Cc1sc2c(c1C)C(c1ccc(N3CCC(C)(Nc4ncc(C(=O)N[C@H]5CC[C@H](Oc6ccc(C#N)c(Cl)c6)CC5)cn4)CC3)cc1)=NC(Cc1ncco1)c1nnc(C)n1-2 (stereo partly drawn) [I-778] | < 500 nM | < 500 nM | – | – |
| Cc1sc2c(c1C)C(c1ccc(N3C[C@H](F)C[C@@H](Nc4ncc(C(=O)N[C@H]5CC[C@H](Oc6ccc(C#N)c(Cl)c6)CC5)cn4)C3)cc1)=NC(Cc1ncco1)c1nnc(C)n1-2 (stereo partly drawn) [I-813] | < 500 nM | < 500 nM | – | – |
| Cc1sc2c(c1C)C(c1ccc(N3CCC4(CC3)CC(Nc3ncc(C(=O)N[C@H]5CC[C@H](Oc6ccc(C#N)c(Cl)c6)CC5)cn3)C4)cc1)=NC(Cc1ncco1)c1nnc(C)n1-2 (stereo partly drawn) [I-818] | < 500 nM | < 500 nM | – | – |
| Cc1sc2c(c1C)C(c1ccc(N3CCCC4(CCN(c5ncc(C(=O)N[C@H]6CC[C@H](Oc7ccc(C#N)c(Cl)c7)CC6)cn5)CC4)C3)cc1)=NC(Cc1ncco1)c1nnc(C)n1-2 (stereo partly drawn) [I-812] | < 500 nM | > 3000 nM | – | – |
| Cc1sc2c(c1C)C(c1ccc(C#CC3CC4(CCCN(c5ccc(C(=O)N[C@H]6CC[C@H](Oc7ccc(C#N)c(Cl)c7)CC6)nn5)C4)C3)cc1)=NC1(CC1)c1nnc(C)n1-2 (stereo partly drawn) [I-472] | < 500 nM | – | – | > 3000 nM |
| COC[C@@H]1N=C(c2ccc(OC3CC4(CCCN(c5ccc(C(=O)N[C@H]6CC[C@H](Oc7ccc(C#N)c(Cl)c7)CC6)nn5)C4)C3)cc2)c2c(sc(C)c2C)-n2c(C)nnc21 (stereo partly drawn) [I-661] | < 500 nM | – | – | – |
| Cc1sc2c(c1C)C(c1ccc(NCC3CCCN(c4ncc(C(=O)N[C@H]5CC[C@H](Oc6ccc(C#N)c(Cl)c6)CC5)cn4)C3)cc1)=NC(Cc1ncco1)c1nnc(C)n1-2 (stereo partly drawn) [I-809] | < 500 nM | > 3000 nM | – | – |
| Cc1sc2c(c1C)C(c1ccc(N3CC4CC3CN4c3ncc(C(=O)NC4CCC(Oc5ccc(C#N)c(Cl)c5)CC4)cn3)cc1)=NC(Cc1ncco1)c1nnc(C)n1-2 (mixture of isomers) [I-815] | – | – | < 500 nM | < 500 nM |
| Cc1sc2c(c1C)C(c1ccc(NCCN3CCN(c4ncc(C(=O)N[C@H]5CC[C@H](Oc6ccc(C#N)c(Cl)c6)CC5)cn4)CC3)cc1)=NC(Cc1ncco1)c1nnc(C)n1-2 (stereo partly drawn) [I-774] | < 500 nM | < 500 nM | – | – |
| COC[C@@H]1N=C(c2ccc(C3CCC4(CC3)CCN(c3ccc(C(=O)N[C@H]5CC[C@H](Oc6ccc(C#N)c(Cl)c6)CC5)nn3)C4)cc2)c2c(sc(C)c2C)-n2c(C)nnc21 (stereo partly drawn) [I-602] | – | < 500 nM | – | – |
| Cc1sc2c(c1C)C(c1ccc(N3CCCC(CNc4ncc(C(=O)NC5CCC(Oc6ccc(C#N)c(Cl)c6)CC5)cn4)C3)cc1)=NC(Cc1ncco1)c1nnc(C)n1-2 (mixture of isomers) [I-810] | – | – | < 500 nM | 500 to 1500 nM |
| Cc1sc2c(c1C)C(c1ccc(N3CCCN(CCCNc4ncc(C(=O)N[C@H]5CC[C@H](Oc6ccc(C#N)c(Cl)c6)CC5)cn4)CC3)cc1)=NC(Cc1ncco1)c1nnc(C)n1-2 (stereo partly drawn) [I-816] | < 500 nM | > 3000 nM | – | – |
| Cc1sc2c(c1C)C(c1ccc(N[C@H]3CC[C@@H](Nc4ncc(C(=O)N[C@H]5CC[C@H](Oc6ccc(C#N)c(Cl)c6)CC5)cn4)CC3)cc1)=NC(Cc1ncco1)c1nnc(C)n1-2 (stereo partly drawn) [I-775] | < 500 nM | > 3000 nM | – | – |
| Cc1sc2c(c1C)C(c1ccc(N3CCC4(CCN(c5ccc(C(=O)N[C@H]6CC[C@H](Oc7ccc(C#N)c(Cl)c7)CC6)nn5)C4)C3)cc1)=N[C@@H](C)c1nnc(C)n1-2 (stereo partly drawn) [I-535] | < 500 nM | – | – | – |
| Cc1sc2c(c1C)C(c1ccc(N[C@H]3CCN(c4ncc(C(=O)N[C@H]5CC[C@H](Oc6ccc(C#N)c(Cl)c6)CC5)cn4)C[C@@H]3F)cc1)=NC(Cc1ncco1)c1nnc(C)n1-2 (stereo partly drawn) [I-781] | < 500 nM | < 500 nM | – | – |
